According to patent US20010044151A1, “Ligands for modulating the expression of exogenous genes via an ecdysone receptor complex” (priority 1998, published 2001):

target: T1, ecdysteroid receptor complex in Plodia interpunctella (IAL-PID2) nuclear extract (Plodia interpunctella, UniProt Q6RVD3); experiment: Competitive 3H-ponasterone A binding assay, Plodia nuclear ecdysone receptor extract; conditions: 3H-ponasterone A displacement
T1 sequence (Q6RVD3 1-541): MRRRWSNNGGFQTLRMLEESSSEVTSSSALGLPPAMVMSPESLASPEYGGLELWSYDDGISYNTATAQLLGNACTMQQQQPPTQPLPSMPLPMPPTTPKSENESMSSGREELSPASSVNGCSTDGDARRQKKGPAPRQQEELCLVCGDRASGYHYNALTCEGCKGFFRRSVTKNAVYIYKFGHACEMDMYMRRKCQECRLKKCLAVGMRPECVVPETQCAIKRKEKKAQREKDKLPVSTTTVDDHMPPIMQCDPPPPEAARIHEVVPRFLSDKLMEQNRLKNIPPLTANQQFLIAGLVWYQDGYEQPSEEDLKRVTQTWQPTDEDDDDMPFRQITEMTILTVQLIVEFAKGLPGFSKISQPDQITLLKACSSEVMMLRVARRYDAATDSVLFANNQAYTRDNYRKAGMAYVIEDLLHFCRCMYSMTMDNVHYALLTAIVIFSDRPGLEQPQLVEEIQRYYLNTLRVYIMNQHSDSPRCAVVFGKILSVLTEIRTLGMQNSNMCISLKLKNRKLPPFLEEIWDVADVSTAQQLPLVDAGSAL
T1 sequence (Q6IVK1 1-415 partner): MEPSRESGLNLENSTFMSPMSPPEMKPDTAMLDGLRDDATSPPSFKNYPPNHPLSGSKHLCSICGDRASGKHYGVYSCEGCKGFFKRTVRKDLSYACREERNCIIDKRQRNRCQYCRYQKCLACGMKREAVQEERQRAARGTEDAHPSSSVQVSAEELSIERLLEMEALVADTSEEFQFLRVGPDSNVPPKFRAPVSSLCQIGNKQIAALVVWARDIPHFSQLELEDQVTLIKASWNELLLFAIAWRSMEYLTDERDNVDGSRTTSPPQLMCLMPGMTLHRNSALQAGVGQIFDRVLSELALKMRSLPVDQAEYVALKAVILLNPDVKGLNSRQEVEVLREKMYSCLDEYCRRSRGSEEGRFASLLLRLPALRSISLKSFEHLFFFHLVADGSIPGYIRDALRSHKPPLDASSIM
Procedure: The cell line IAL-PID2, derived from imaginal wing discs of the lepidopteran Plodia interpunctella was obtained from H. Oberlander and maintained as described (Lynn, E. E. and Oberlander, H., (1983), J. Insect Physiology, 29, 591-96). A 300 ml stationary phase culture of P. interpunctella cells was centrifuged at 700×g for 10 mm at room temperature to pellet the cells. The supernatant was aspirated and the cellular pellet resuspended in 35 ml TMT (TM buffer with 0.1% Triton X-100). The suspension was homogenized with twenty up and down strokes of a Dounce homogenizer on ice. Homogenate was incubated on ice for 10 minutes and then centrifuged for 15 min at 900×g. The pellet was resuspenced in 15 ml TM buffer and centrifuged at 2,300×g. This pellet was extracted in TMK buffer (TM buffer with 800 mM KCl) by using a glass rod to crush the pellet until a gelatinous slurry was formed and incubated on ice for 15 minutes. The extract was centrifuged at 100,000×g in a swinging bucket rotor for 60 minutes. The supernatant, which constituted the nuclear extract, was desalted on a 10 DG desalting column (Bio-Rad, 732-2010) equilibrated with T-buffer. The total protein concentration in the nuclear extract was adjusted to 5 mg per ml with T-buffer containing 1 mM DTT.
^3H ponasterone A, a potent phytoecdysteroid, (66,000 dpm; specific activity 170 Ci/mmole; NEN Life Science Products, Boston, Mass.) was mixed with 100 μl Kc cytosolic or Plodia nuclear ecdysone receptor extracts in […] glass test tubes in the absence or presence of 10 μM unlabelled 20-hydroxyecdysone (20E) to obtain an estimate of total or non-specific respectively, binding of tritiated ponasterone A. The tubes were vortexed and incubated overnight at 4° C. for Kc cytosolic extracts or 1.5 hours for Plodia nuclear extracts for binding reactions to reach equilibrium. At the end of equilibrium binding times, the bound tritiated ponasterone A was separated from the unbound by addition of ice-cold 600 μl or 300 μl dextran-coated charcoal solution (500 mg of Sigma HCL-washed activated charcoal, 50 mg Pharmacia Dextran T70, 50 ml T-buffer) to Kc or Plodia extracts, respectively. The tubes were vortexed briefly and centrifuged at 7,000×g to pellet the charcoal. The supernatant, 600 μl or 300 μl for Kc or Plodia extract reactions, respectively, containing tritiated ponasterone A bound to proteins, was aspirated into liquid scintillation vials containing 5 ml scintillation cocktail (ReadySafe®, Beckmann) each The mixture was vortexed and the amount of total or non-specifically bound radioactivity measured in a Beckmann LS500 liquid scinitllation counter with a 60% counting efficiency for tritium.
The concentrations of competitors that inhibited 50% of tritiated ponasterone A binding (IC50) was determined by incubating Kc or Plodia nuclear extracts or extracts of bacteria producing CfEcR(CDEF)-GST and CfUSP-GST fusions proteins with ^3H-ponasterone A (66,000 dpm per reaction) in the presence of a range of concentrations (0.1 nM to 10 μM) of test compounds. In the case of binding reactions using bacterial fusion proteins, 20 or one μl extract of bacteria producing CfEcR(CDEF)-GST or CfUSP-GST fusion proteins, respectively, were included per binding reaction. The assay conditions and determination of total and non-specific binding was as described above. The volume of competitor in solvent, like that for 20E or solvent alone, was kept at 1% of total reaction volume by using a 100 fold concentrated stock solution (i.e. a 100 fold dilution of stock solutions). The remainder of the assay was as described above. Each reaction was carried out in duplicate per concentration per test compound. Specific binding of ^3H-ponasterone A was determined by subtracting non-specific binding (that obtained in the presence of 10 μM 20E) from total (no competitor) or competed radioactivity bound. […]

**Q.** For `CCc1c(OC)cccc1C(=O)NN(C(=O)c1cccc(OC)c1)C(C)(C)C` [Ligand 1], which “Plodia log(1/IC50)” value is on record?
**A.** 8.52

**Q.** `Cc1cc(C)cc(C(=O)N(NC(=O)c2ccc3c(c2C)OCCO3)C(C)(C)C)c1` [Ligand 2] was tested. Which “Plodia log(1/IC50)” value did it give?
**A.** 9.14

**Q.** For `COc1cccc(C(=O)NN(C(=O)c2cc(C)cc(C)c2)C(C)(C)C)c1C` [Ligand 3], which “Plodia log(1/IC50)” value is on record?
**A.** 9.04

**Q.** `CCc1c(OC)cccc1C(=O)NN(C(=O)c1cc(F)cc(F)c1)C(C)(C)C` [Ligand 4] was tested. Which “Plodia log(1/IC50)” value did it give?
**A.** 8.51

**Q.** `CCc1c(OC)cccc1C(=O)NN(C(=O)c1cc(C)cc(C)c1)C(C)(C)C` [Ligand 5] was tested. Which “Plodia log(1/IC50)” value did it give?
**A.** 9.49

**Q.** Which “Plodia log(1/IC50)” value does the source give for `CCOc1cccc(C(=O)NN(C(=O)c2cc(C)cc(C)c2)C(C)(C)C)c1CC` [Ligand 12] here?
**A.** 9.63

**Q.** For `CCc1c(OC)cccc1C(=O)NN(C(=O)c1cc(Cl)cc(Cl)c1)C(C)(C)C` [Ligand 13], which “Plodia log(1/IC50)” value is on record?
**A.** 9.06
